What was measured:
[1] = test system: HEK-Blue IL-1β cells stimulated with hIL-1β; assay: HEK293 reporter gene assay, hIL-1β as trigger; type: cell-based, human; conditions: inhibitor 3nM
Method: (§1) We used HEK-Blue™ IL-1β cells that respond specifically to IL-1 (# hkb-il1b, InvivoGen). These cells can detect IL-1α and IL-1β, as these cytokines bind to the same receptor, IL-1R1. They express a Seap reporter gene under the control of the IFN-β minimal promoter fused to five NF-kappaB and five AP-1 binding sites. Thirty microliters (300,000 cells/ml) per well of a 384-well plate were plated overnight. Cells were then stimulated with graded concentrations of cytokines (hIL-1α or hIL-1β) in the absence or presence of canakinumab (Ilaris®, ILARI LYVI 150MG 22GLW.012, batch U003 0409)[22], anakinra (Kineret®, 100 mg/0.67 ml injectable solution, Sobi)[23], or compound (S)-2 (compounds were pre-mixed for 1 h with the cytokine prior to addition to cells) and further incubated overnight before assessment of Seap activity.

[2] = test system: HEK-Blue IL-1β cells stimulated with hIL-1α; assay: HEK293 reporter gene assay, hIL-1α as trigger; type: cell-based, human; conditions: inhibitor 3nM
Method: as §1

[3] = test system: normal human dermal fibroblasts stimulated with hIL-1α; assay: Human fibroblast IL-6 release assay, hIL-1α stimulated; type: cell-based; parameters: IL-1alpha (mean, SD): mean readout (IL-6 release): unit not given here; conditions: Figure 3c; for Mean OD (OD 450nm): compound 1 nM; for IL-1alpha (mean, SD): mean readout (IL-6 release): compound @ 1nM
Method: as §1
Normal human dermal fibroblasts (NHDF) from Clonetics^TM (LONZA, Cat # CC-2509 (NHDF-Neo), Lot # 0000234242, used at passage ≤14) were seeded at a density of 5000 cells/well in 100 μL of culture medium using 96-well plates (flat bottom, TCT). Treatment with cytokines/compounds was performed as described above. Cells were incubated for another 6 h and were subsequently spun down (320g/3 min). IL-6 was measured in the supernatant by ELISA (BioLegend, # 430503) or HTRF (Cisbio, #62HIL06PEH).

Substance: canakinumab: anti-hIL-1β antibody [reference compound]
- reporter gene assay signal, mean (Figure 3d) ([1]; IL-1beta 3.04596 pg/ml): 0.06
- reporter gene assay signal, mean (Figure 3d) ([1]; IL-1beta 6.09192 pg/ml): 0.06
- reporter gene assay signal, mean (Figure 3d) ([1]; IL-1beta 12.1838 pg/ml): 0.06
- reporter gene assay signal, mean (Figure 3d) ([1]; IL-1beta 24.3677 pg/ml): 0.06
- reporter gene assay signal, mean (Figure 3d) ([1]; IL-1beta 48.7353 pg/ml): 0.06
- reporter gene assay signal, mean (Figure 3d) ([1]; IL-1beta 97.4707 pg/ml): 0.07
- reporter gene assay signal, mean (Figure 3d) ([1]; IL-1beta 194.941 pg/ml): 0.08
- reporter gene assay signal, mean (Figure 3d) ([1]; IL-1beta 389.883 pg/ml): 0.1
- reporter gene assay signal, mean (Figure 3d) ([1]; IL-1beta 779.766 pg/ml): 0.2
- reporter gene assay signal, mean (Figure 3d) ([1]; IL-1beta 1559.53 pg/ml): 0.42
- reporter gene assay signal, mean (Figure 3d) ([1]; IL-1beta 3119.06 pg/ml): 0.74
- reporter gene assay signal, mean (Figure 3d) ([1]; IL-1beta 6238.12 pg/ml): 1.18
- reporter gene assay signal, mean (Figure 3d) ([1]; IL-1beta 12476.2 pg/ml): 1.55
- reporter gene assay signal, mean (Figure 3d) ([1]; IL-1beta 24952.5 pg/ml): 1.78
- reporter gene assay signal, mean (Figure 3d) ([1]; IL-1beta 49905 pg/ml): 1.85
- reporter gene assay signal, mean (Figure 3d) ([2]; IL-1alpha 3.04596 pg/ml): 0.08
- reporter gene assay signal, mean (Figure 3d) ([2]; IL-1alpha 6.09192 pg/ml): 0.12
- reporter gene assay signal, mean (Figure 3d) ([2]; IL-1alpha 12.1838 pg/ml): 0.19
- reporter gene assay signal, mean (Figure 3d) ([2]; IL-1alpha 24.3677 pg/ml): 0.36
- reporter gene assay signal, mean (Figure 3d) ([2]; IL-1alpha 48.7353 pg/ml): 0.66
- reporter gene assay signal, mean (Figure 3d) ([2]; IL-1alpha 97.4707 pg/ml): 1.07
- reporter gene assay signal, mean (Figure 3d) ([2]; IL-1alpha 194.941 pg/ml): 1.44
- reporter gene assay signal, mean (Figure 3d) ([2]; IL-1alpha 389.883 pg/ml): 1.69
- reporter gene assay signal, mean (Figure 3d) ([2]; IL-1alpha 779.766 pg/ml): 1.8
- reporter gene assay signal, mean (Figure 3d) ([2]; IL-1alpha 1559.53 pg/ml): 1.86
- reporter gene assay signal, mean (Figure 3d) ([2]; IL-1alpha 3119.06 pg/ml): 1.88
- reporter gene assay signal, mean (Figure 3d) ([2]; IL-1alpha 6238.12 pg/ml): 1.91
- reporter gene assay signal, mean (Figure 3d) ([2]; IL-1alpha 12476.2 pg/ml): 1.92
- reporter gene assay signal, mean (Figure 3d) ([2]; IL-1alpha 24952.5 pg/ml): 2
- reporter gene assay signal, mean (Figure 3d) ([2]; IL-1alpha 49905 pg/ml): 1.98
- Mean OD (OD 450nm) ([3]; hu IL-1A 0 pg/mL): 0.041
- Mean OD (OD 450nm) ([3]; hu IL-1A 40 pg/mL): 0.388
- Mean OD (OD 450nm) ([3]; hu IL-1A 80 pg/mL): 0.589
- Mean OD (OD 450nm) ([3]; hu IL-1A 120 pg/mL): 0.693
- Mean OD (OD 450nm) ([3]; hu IL-1A 160 pg/mL): 0.774
- Mean OD (OD 450nm) ([3]; hu IL-1A 200 pg/mL): 0.785
- IL-1alpha (mean, SD): mean readout (IL-6 release) ([3]; hu IL-1a 0 pg/mL): 0
- IL-1alpha (mean, SD): mean readout (IL-6 release) ([3]; hu IL-1a 40 pg/mL): 2114.2
- IL-1alpha (mean, SD): mean readout (IL-6 release) ([3]; hu IL-1a 80 pg/mL): 3604.7
- IL-1alpha (mean, SD): mean readout (IL-6 release) ([3]; hu IL-1a 120 pg/mL): 4369.8
- IL-1alpha (mean, SD): mean readout (IL-6 release) ([3]; hu IL-1a 160 pg/mL): 4969.2
- IL-1alpha (mean, SD): mean readout (IL-6 release) ([3]; hu IL-1a 200 pg/mL): 5051.1
